Reference: BindingDB's records for patent US20250197375 (Kineta, 2025)
pIC50: −log10 of the molar value.

Target: T1, 1-phosphatidylinositol 3-phosphate 5-kinase [S696N,L932S,Q995L,T998S,S1033A,Q1183K] (Homo sapiens, UniProt Q9Y2I7, L932S/Q1183K/Q995L/S1033A/S696N/T998S)
T1 construct: gene PIKFYVE
Test: PIKfyve Inhibitory Activity Assay
Description: PIKfyve Biochemical Assay. The biochemical PIKFyve inhibition assays were run by Cama Biosciences according to proprietary methodology based on the Promega ADP-Glo™ Kinase assay. […] GST-PIKFYVE was purified by using glutathione sepharose chromatography and used in an ADP-Glo™ Kinase assay (Promega). Reactions were set up by adding the test compound solution, substrate solution, ATP solution and kinase solution, each at 4× final concentrations. Reactions were prepared with assay buffer (50 mM MOPS, 1 mM DTT, pH7.2), mixed, and incubated in black 384 well polystyrene plates for 1 hour at room temperature. ADP-Glo™ reagent was then added for 40 minutes, followed by kinase detection reagent for an additional 40 minutes. The kinase activity was evaluated by detecting relative light units on a luminescence plate reader. Samples were run in duplicate from 10 μM to 3 nM. […] IC50 values were calculated from concentration versus percent inhibition curves by fitting to a four-parameter logistic curve.

T1 sequence (Q9Y2I7 2-2098 S696N/L932S/Q995L/T998S/S1033A/Q1183K limits assumed): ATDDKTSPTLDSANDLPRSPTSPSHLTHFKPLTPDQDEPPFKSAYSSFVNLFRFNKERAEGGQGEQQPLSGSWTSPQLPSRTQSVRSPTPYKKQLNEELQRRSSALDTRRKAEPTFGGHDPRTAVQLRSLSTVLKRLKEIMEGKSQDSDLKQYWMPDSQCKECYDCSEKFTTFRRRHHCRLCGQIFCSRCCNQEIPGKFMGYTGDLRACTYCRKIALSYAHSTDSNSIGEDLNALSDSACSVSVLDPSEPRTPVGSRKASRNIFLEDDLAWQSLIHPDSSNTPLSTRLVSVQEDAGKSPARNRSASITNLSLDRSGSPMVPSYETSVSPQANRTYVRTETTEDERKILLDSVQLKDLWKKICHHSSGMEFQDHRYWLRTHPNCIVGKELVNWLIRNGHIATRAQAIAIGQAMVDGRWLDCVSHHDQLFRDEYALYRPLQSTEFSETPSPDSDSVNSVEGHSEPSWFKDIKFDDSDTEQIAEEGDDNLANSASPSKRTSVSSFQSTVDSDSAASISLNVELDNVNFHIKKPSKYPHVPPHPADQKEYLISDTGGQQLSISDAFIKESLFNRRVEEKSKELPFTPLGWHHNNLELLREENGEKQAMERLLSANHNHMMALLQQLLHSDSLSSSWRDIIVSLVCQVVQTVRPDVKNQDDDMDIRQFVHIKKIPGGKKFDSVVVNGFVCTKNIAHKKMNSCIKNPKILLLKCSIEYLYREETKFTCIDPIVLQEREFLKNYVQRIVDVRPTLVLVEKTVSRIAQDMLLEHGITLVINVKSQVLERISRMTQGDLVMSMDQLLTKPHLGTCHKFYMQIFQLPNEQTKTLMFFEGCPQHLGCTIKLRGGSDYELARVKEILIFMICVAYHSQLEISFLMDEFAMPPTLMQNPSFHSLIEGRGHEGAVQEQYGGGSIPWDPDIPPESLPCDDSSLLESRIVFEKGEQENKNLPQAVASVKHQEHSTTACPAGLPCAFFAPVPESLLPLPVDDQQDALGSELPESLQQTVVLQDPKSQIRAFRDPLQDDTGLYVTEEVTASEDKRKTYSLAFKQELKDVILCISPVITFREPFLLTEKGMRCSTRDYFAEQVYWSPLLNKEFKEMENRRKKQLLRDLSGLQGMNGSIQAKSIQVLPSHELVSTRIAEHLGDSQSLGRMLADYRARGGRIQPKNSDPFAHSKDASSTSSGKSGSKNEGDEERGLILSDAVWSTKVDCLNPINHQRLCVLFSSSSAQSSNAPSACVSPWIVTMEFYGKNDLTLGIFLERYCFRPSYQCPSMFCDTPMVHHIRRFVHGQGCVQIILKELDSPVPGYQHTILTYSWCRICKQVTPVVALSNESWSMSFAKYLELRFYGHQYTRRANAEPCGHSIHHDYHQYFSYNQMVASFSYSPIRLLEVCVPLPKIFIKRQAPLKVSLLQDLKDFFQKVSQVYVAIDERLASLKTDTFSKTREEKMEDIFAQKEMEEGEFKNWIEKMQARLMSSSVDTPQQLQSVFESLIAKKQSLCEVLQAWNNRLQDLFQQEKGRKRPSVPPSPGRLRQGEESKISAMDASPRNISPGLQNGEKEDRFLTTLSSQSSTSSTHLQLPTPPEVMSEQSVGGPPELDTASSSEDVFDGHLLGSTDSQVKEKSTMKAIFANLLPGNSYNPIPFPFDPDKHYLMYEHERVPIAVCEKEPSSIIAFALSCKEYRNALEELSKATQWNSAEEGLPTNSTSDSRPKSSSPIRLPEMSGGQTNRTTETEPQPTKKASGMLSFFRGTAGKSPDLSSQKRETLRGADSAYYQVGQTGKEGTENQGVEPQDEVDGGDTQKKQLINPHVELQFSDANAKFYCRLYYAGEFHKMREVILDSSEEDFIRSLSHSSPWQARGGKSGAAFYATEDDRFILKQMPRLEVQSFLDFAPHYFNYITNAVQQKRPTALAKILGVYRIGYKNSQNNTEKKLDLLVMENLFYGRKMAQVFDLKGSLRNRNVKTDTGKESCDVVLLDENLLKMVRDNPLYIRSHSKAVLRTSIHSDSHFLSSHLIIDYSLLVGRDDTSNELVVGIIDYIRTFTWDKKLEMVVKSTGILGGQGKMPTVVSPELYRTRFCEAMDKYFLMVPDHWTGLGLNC

## CN(C)C(=O)c1c(Nc2ccncc2)nc(N2CCOCC2)nc1-c1cccc(-c2ccn(C)n2)c1 [US20250197375, Compound 66]
  pIC50: > 8.00
